Earlier results as cited in patent US20200061095A1, “Compounds for the Treatment of Systemic Insulin Resistance Disorders and the Use Thereof” (Galectin Sciences, LLC, priority 2017, published 2020).

Tests used:
Galectin 3 = Galectin 3 (Homo sapiens, UniProt P17931); conditions: reported
lung fibrosis = conditions: pulmonary administration, intra-tracheal instillation or nebulizers

Sequence of Galectin 3 (P17931 whole entry, species assumed): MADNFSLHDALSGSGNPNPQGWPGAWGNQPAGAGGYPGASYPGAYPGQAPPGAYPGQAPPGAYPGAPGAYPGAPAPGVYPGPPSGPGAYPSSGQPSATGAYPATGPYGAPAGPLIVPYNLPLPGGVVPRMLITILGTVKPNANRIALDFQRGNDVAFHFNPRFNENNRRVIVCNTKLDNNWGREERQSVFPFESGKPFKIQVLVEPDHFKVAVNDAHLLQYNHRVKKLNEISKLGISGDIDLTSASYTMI

OC[C@H]1O[C@@H](S[C@@H]2O[C@H](CO)[C@H](O)[C@H](n3cc(-c4cccc(F)c4)nn3)[C@H]2O)[C@H](O)[C@@H](n2cc(-c3cccc(F)c3)nn2)[C@H]1O [TD-139]
binding to Galectin 3 (Galectin 3): bind to Galectin 3 | efficacy in mouse model of lung fibrosis (lung fibrosis): effective
